This is an account of results in patent publication US9566252B2, “Method for the alleviation of dyspareunia in women” (HORMOS MEDICAL LTD., priority 2000, dated 2017).

Where two headings read alike, the source gives them in different places.

For data set [1] the following is noted: clinical studies. As for the experimental part:
(§1) Tolerability and pharmacokinetics were also assessed.

The subject of data set [2] is endometrium. Particulars: for Increase in thickness of the endometrium, average: statistically not significant. As to the method: as §1
Data set [3] has as its system vaginal dryness. The data set can be described thus: Vaginal dryness symptoms by visual analogue scale (subjective estimates). Particulars: FIG. 2; for Effect on vaginal dryness, individuals' subjective estimate (visual analogue scale): change pre-treatment to 3 months, all ospemifene dosage levels (30, 60, 90 mg daily), raloxifene 60 mg daily. In kind it is in vivo, healthy postmenopausal female volunteers. As for the experimental part: The vaginal dryness symptoms were also assessed by using a visual analogue scale where the volunteers themselves recorded their subjective estimates. The scale is based on a 100-mm line on paper. The left end represents no symptom and the right end the worst possible symptom. The change from pre-treatment to 3 months estimates was assessed and considered to be indicative of the treatment efficacy.

In data set [4] the test system is vaginal epithelium. Conditions: for Change in maturity index for superficial cells (MI 3), mean: index 100 full estrogen, index 0 no estrogenicity; for Change in maturity index for parabasal cells (MI 1), mean: index 100 no estrogenicity, index 0 full estrogen; for Pathological changes in cervical smear samples: 3 months' treatment, any sample; for Change from baseline to post-treatment in karyopyknosis index for superficial cells, individual subjects: ospemifene 30, 60, 90 mg daily, raloxifene 60 mg daily, all cases except one.
Method: Raloxifene (60 mg daily) was used as reference. […] There were 29 volunteers at each dose level, as well as in the raloxifene group. Ospemifene was administered in gelatine capsules containing either 30, 60 or 90 mg of ospemifene. […] The vaginal epithelium was assessed by karyopyknosis index which is a well known assessment method among the skilled persons. In this method, the vaginal fraction of the cervical smears is estimated as the percentage of the number of cells from different layers: the parabasal cell layer; the intermediate cell layer; and the superficial cell layer. Estrogenicity is seen by a shift towards superficial cell fraction. […] Samples were taken before and after the treatment (at 3 months).

Data set [5] concerns sexual activity. Particulars: of 70 patients followed up for 6 weeks. The source says: In the clinical study, where the effects of ospemifene on quality of life and cardiovascular parameters were studied, the patients were asked for sexual activity. The questionnaire included “worsening” or “no effect” on sexual activity. Improvement on sexual activity was not asked. When 70 patients had been followed up for 6 weeks, 27 of them had spontaneously reported to the investigators increased sexual activity. Similar reports were independently obtained from different centers of the study.

Where [6] appears, read: 30 mg daily perorally, 3 months.
[7] abbreviates: 60 mg daily perorally, 3 months.
Where [8] appears, read: 90 mg daily perorally, 3 months.

For `OCCOc1ccc(/C(=C(/CCCl)c2ccccc2)c2ccccc2)cc1` [Ospemifene, (deaminohydroxy)toremifene], the Tolerability entry in data set [1] is reported as “excellent tolerability”. Further, the “Increase in thickness of the endometrium, average” value in data set [2] (30 mg daily, 3 months) amounted to 0.2 mm; in data set [2] (60 mg daily, 3 months) it was 0.5 mm; in data set [2] (90 mg daily, 3 months), 0.5 mm. Further, the “Estrogenic effect on endometrial histology” value in data set [2] (30, 60, 90 mg daily, 3 months) is “weak estrogenic effect”. The “Malignant findings in the endometrium” value in data set [2] (30, 60, 90 mg daily, 3 months) was “no malignant findings”. The “Measured values of endometrial thickness” value in data set [2] (30, 60, 90 mg daily, all measured values) was “smaller than 8 mm”. The “Effect on vaginal dryness, comparison of dose levels” value in data set [3] (60 mg daily, 3 months) is reported as “best result”. Also, the “Effect on vaginal dryness, individuals' subjective estimate (visual analogue scale)” value in data set [3] is “clear decreasing effect”. The “Change in maturity index for superficial cells (MI 3), mean” value in data set [4] (setting [6]) is given as “+12.4”; in data set [4] (setting [7]), “+5.5”; in data set [4] (setting [8]) it was “+12.5”. The “Change in maturity index for parabasal cells (MI 1), mean” value in data set [4] (setting [6]) was −40; in data set [4] (setting [7]), −26; in data set [4] (setting [8]), −48. For the same compound, the “Pathological changes in cervical smear samples” value in data set [4] is on record as “No pathological changes”. Further, the “Change from baseline to post-treatment in karyopyknosis index for superficial cells, individual subjects” value in data set [4] (12 weeks' treatment) is given as less than 40. Besides, in data set [4] (30, 60, 90 mg daily, 3 months), the “Estrogenic effect in the cervical smear” value was “weak but statistically significant estrogenic effect”. Besides, in data set [4] (30, 60 and 90 mg daily, 3 months, elderly female volunteers), the “Effect on vaginal atrophy” value is “significant decrease in vaginal atrophy”. For the same compound, the “Increase in karyopyknosis index for superficial cells, single highest case” value in data set [4] (one case in the 90 mg group, 12 weeks' treatment) is 45. The “Patients spontaneously reporting increased sexual activity” value in data set [5] was determined as 27.

For the compound `O=C(c1ccc(OCCN2CCCCC2)cc1)c1c(-c2ccc(O)cc2)sc2cc(O)ccc12` [Raloxifene, raloxifene, reference compound], the “Effect on vaginal dryness, individuals' subjective estimate (visual analogue scale)” value in data set [3] is listed as “only a minor decrease”. In addition, in data set [4] (setting [7]), the “Change in maturity index for superficial cells (MI 3), mean” value is given as −0.3 and the “Change in maturity index for parabasal cells (MI 1), mean” value was −2. Moreover, in data set [4], the “Pathological changes in cervical smear samples” value was “No pathological changes”. Besides, the “Change from baseline to post-treatment in karyopyknosis index for superficial cells, individual subjects” value in data set [4] (12 weeks' treatment) is listed as “no one in the raloxifene group (FIG. 1D) had a significant change”.
